Assay results taken from patent publication US20250228954A1, “Designing Antisense Oligonucleotide Delivery Peptides by Interpretable Machine Learning” (Sarepta Therapeutics, Inc., priority 2020, published 2025).

What was measured:
HeLa 654 cells = assay: HeLa-654 eGFP assay (corrective splicing / exon skipping by PMO IVS2-654); assay type: cell-based, human
[1] = Chromogenic LAL endotoxin assay; conditions: lot used for animal studies, acetate salt, 0.5 mg in 1 mL PBS
Protocol: The amount of endotoxin in PMO-P7 was measured. A chromogenic LAL (Limulus Amebocyte Lysate) assay for the detection and quantification of bacterial endotoxins was used. LAL is an extract of blood cells (amoebocytes) from the Atlantic horseshoe crab. This assay is based on the reaction of LAL with bacterial endotoxin lipopolysaccharide (LPS), which is a membrane component of gram-negative bacteria. In this method the LAL reagent is mixed with a chromogenic reagent (a peptide connected to p-nitroaniline, a yellow colorant) to produce a synthetic chromogenic substrate. The sample was added to this chromogenic substrate prior incubation. The presence of endotoxins in the sample produces a series of enzymatic reactions in the LAL reagent resulting in the breaking of the peptide bonds releasing p-nitroaniline molecules and therefore producing a yellow color. The concentration of endotoxin is quantitated by measuring the absorbance at 405-410 nm. Using the lot of PMO-P7 for animal studies, PMO-P7 solution was prepared using 0.5 mg of PMO-P^7 as acetate salt dissolved in 1 mL of PBS (1X). […] The reader mixed the sample with the LAL (Limulus Amebocyte Lysate) reagent. […] After mixing, the optical density of the wells was measured and analyzed against an internal archived standard curve. The reading was 0.0471 EU/mg (EU: endotoxin units). […]

EGFP-654 mice = assay: EGFP protein level in tissues of EGFP-654 mice after single i.v. injection; assay type: in vivo, mouse; parameters: unit not given here; conditions: 7 days
Excerpt: The mice used in the study contain a similar transgene as the HeLa654 cells from Example 4. This mouse model ubiquitously expresses EGFP-654 transgene throughout the body under chicken β-actin promoter. A mutated nucleotide 654 at intron 2 of human β-globin gene is contained in the EGFP-654 sequence which interrupts EGFP-654 coding sequence and prevents proper translation of EGFP protein. […] In this study, 6- to 8-week-old male EGFP-654 mice bred at Charles River Laboratory were used. These mice were group housed with ad libitum access to food and water.
[…] Seven days after the injection, the mice were euthanized for serum and tissue sample collection. Quadriceps, diaphragm, heart were rapidly dissected, snap-frozen in liquid nitrogen and stored at −80° C. until analysis.
20-25 mg of mouse tissue was homogenized in RIPA buffer (Thermo Fisher, Cat #89900) with protease inhibitor cocktail (Roche, 04693124001) using a Fast Prep 24-5G instrument (MP Biomedical). Homogenates were centrifuged at 12,000 g for 10 min at 4° C. The resultant supernatant lysates were quantified by Pierce BCA Protein Assay Kit (Thermo Fisher, Cat #23225) and saved for EGFP expression measurement. Specifically, 80 μg of lysates were aliquoted in each well in a black-wall clear-bottom 96-well microplate (Corning). EGFP fluorescent intensity of each sample was measured in duplicates using a SpectraMAx i3x microplate reader (Molecular devices) by default setting. The average EGFP fluorescent intensity of each sample was then plotted against a standard curve constructed by recombinant EGFP protein (Origen, Cat #TP790050) to quantify EGFP protein level per μg protein lysate (See FIGS. 24D-F).

[2] = Serum kidney injury markers in EGFP-654 mice; assay type: in vivo, mouse; conditions: after seven days
Protocol: After 3-days of acclimation, mice were randomized into groups to receive a single i.v. tail vein injection of either saline or PMO-P7 at the indicated doses; 5, 10 and 30 mg/kg. Seven days after the injection, the mice were euthanized for serum and tissue sample collection. Quadriceps, diaphragm, heart were rapidly dissected, snap-frozen in liquid nitrogen and stored at −80° C. until analysis.
Serum from all groups were collected 7-days post-injection and tested for kidney injury markers using a Vet Axcel Clinical Chemistry System (Alfa Wassermann Diagnostic Technologies, LLC). Specifically, serum BUN, creatinine, and cystatin C levels were measured using ACE® Creatinine Reagent (Alfa Wassermann, Cat #SA1012), ACER Blood Urea Nitrogen Reagent (Alfa Wassermann, Cat #SA2024) and Diazyme Cystatin C immunoassay (Diazyme Laboratories, Cat #DX133C—K), […], per manufacturer's recommendation (See, FIGS. 24A-C).

Cc1cn([C@H]2CN(P(=O)(OC[C@@H]3CN(P(=O)(OC[C@@H]4CN(P(=O)(OC[C@@H]5CN(P(=O)(OC[C@@H]6CN(P(=O)(OC[C@@H]7CN(P(=O)(OC[C@@H]8CN(P(=O)(OC[C@@H]9CN(P(=O)(OC[C@@H]%10CN(C(=O)CCCCC(=O)N%11Cc%12ccccc%12-c%12nnn(CCCCC(=O)N[C@@H](CCCCN)C(=O)N[C@@H](CCCCN)C(=O)N[C@@H](CCCCN)C(=O)N[C@@H](CCCCN)C(=O)N[C@@H](CCCCN)C(=O)N[C@@H](CCC(N)=O)C(=O)NCCC(=O)N[C@@H](CCCCN)C(=O)N[C@@H](CCCCN)C(=O)N[C@@H](CCCCN)C(=O)N[C@@H](Cc%13c[nH]cn%13)C(=O)N[C@@H](CCCNC(=N)N)C(=O)N[C@@H](Cc%13c[nH]c%14ccccc%13%14)C(=O)N%13CCC[C@H]%13C(=O)N[C@@H](CCCCN)C(=O)NCCCCCC(=O)NCCCCCC(=O)N[C@@H](CS)C(N)=O)c%12-c%12ccccc%12%11)C[C@H](n%11cnc%12c(=O)[nH]c(N)nc%12%11)O%10)N(C)C)C[C@H](n%10cnc%11c(N)ncnc%11%10)O9)N(C)C)C[C@H](n9ccc(N)nc9=O)O8)N(C)C)C[C@H](n8ccc(N)nc8=O)O7)N(C)C)C[C@H](n7ccc(N)nc7=O)O6)N(C)C)C[C@H](n6cnc7c(N)ncnc76)O5)N(C)C)C[C@H](n5cnc6c(N)ncnc65)O4)N(C)C)C[C@H](n4cc(C)c(=O)[nH]c4=O)O3)N(C)C)C[C@@H](COP(=O)(N(C)C)N3C[C@@H](COP(=O)(N(C)C)N4C[C@@H](COP(=O)(N(C)C)N5C[C@@H](COP(=O)(N(C)C)N6C[C@@H](COP(=O)(N(C)C)N7C[C@@H](COP(=O)(N(C)C)N8C[C@@H](COP(=O)(N(C)C)N9C[C@@H](COP(=O)(N(C)C)N%10C[C@@H](COP(=O)(N(C)C)N%11C[C@@H](COP(=O)(N(C)C)N%12CCN(C(=O)OCCOCCOCCO)CC%12)O[C@@H](n%12cnc%13c(=O)[nH]c(N)nc%13%12)C%11)O[C@@H](n%11ccc(N)nc%11=O)C%10)O[C@@H](n%10cc(C)c(=O)[nH]c%10=O)C9)O[C@@H](n9cnc%10c(N)ncnc%109)C8)O[C@@H](n8cc(C)c(=O)[nH]c8=O)C7)O[C@@H](n7cc(C)c(=O)[nH]c7=O)C6)O[C@@H](n6cnc7c(N)ncnc76)C5)O[C@@H](n5ccc(N)nc5=O)C4)O[C@@H](n4ccc(N)nc4=O)C3)O2)c(=O)[nH]c1=O (some centres unmarked) [P7]
fold increase in activity with respect to unconjugated PMO (eGFP assay) (HeLa 654 cells; 5 μM): 14 fold | PMO delivery / activity, result in words (HeLa 654 cells; 5 μM, 22 h): superior activity | fold increase at maximal effective concentration with respect to unconjugated PMO (HeLa 654 cells; dose-response between 0.1 and 100 μM): 45 fold | FOLD OVER PMO (HeLa 654 cells; eGFP fluorescence of PMO-peptide conjugate relative to unconjugated PMO, 5 μM, 22 h): 17.7 | endotoxin [1]: 0.0471 EU/mg | GFP protein in the Diaphragm (EGFP-654 mice; 30 mg/kg): 1100 | GFP protein in the Heart (EGFP-654 mice; 30 mg/kg): 2000 | GFP protein in the Quadriceps (EGFP-654 mice; 30 mg/kg): 1300 | GFP protein in the Diaphragm (EGFP-654 mice; 60 mg/kg): 2500 | GFP protein in the Heart (EGFP-654 mice; 60 mg/kg): 2200 | GFP protein in the Quadriceps (EGFP-654 mice; 60 mg/kg): 4000 | BUN (blood urea nitrogen) levels [2]: no significant changes | creatinine levels [2]: no significant changes | cystatin C levels [2]: no significant changes
